Laboratory results from patent US20250230138A1, “COMPOUNDS HAVING A T-STRUCTURE FORMED BY AT LEAST FOUR CYCLES FOR USE IN THE TREATMENT OF CANCER AND OTHER INDICATIONS” (TheRas, Inc., priority 2022, published 2025).
Like-named read-outs stand apart in the source and are kept apart here.

Key:
[1] = biological target: Cys242 in human PIK3CA (157-299) (Homo sapiens (Human), UniProt P42336); experiment: Covalent modification assay using MALDI-TOF MS; type: biochemical; conditions: 4 h reaction time point; 3.33 μM protein target, 1:7.5 protein to compound ratio (compounds 1-852)
Sequence of Cys242 in human PIK3CA (157-299) (P42336 157-299): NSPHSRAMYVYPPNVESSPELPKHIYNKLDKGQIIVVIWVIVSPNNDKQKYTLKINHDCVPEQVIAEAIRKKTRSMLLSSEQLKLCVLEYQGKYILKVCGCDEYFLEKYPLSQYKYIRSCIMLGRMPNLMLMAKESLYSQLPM
Method in brief: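 Covalent adduct formation was read by linear-mode MALDI-TOF with sinapinic acid matrix, reported as modified-protein peak height divided by total protein peak heights. Reactions held PIK3CA (157-299) at 1 or 3.33 μM in HEPES/NaCl/MgCl2 buffer, pH 7.3, sampled after 15 min to 4 h at room temperature.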

[2] = tested on: pAKT in Tet-on KRAS G12D HeLa cells; experiment: Cell-based pAKT HTRF assay in Tet-on KRAS G12D HeLa cells; conditions: read-out: pAKT inhibition IC50 in Tet-on KRAS G12D HeLa cells
Method: To determine the effectiveness of compounds in disrupting PIK3CA/KRAS signaling in cells, we implemented pAKT HTRF assay (Perkin-Elmer) in Tet-on KRAS G12D HeLa cells.
On Day 1, cells were seeded into 96-well plates at 2×10^4 cells/well in complete growth media (DMEM, 10% Tet-Screened FBS) supplemented with 200 ng/mL doxycycline.
On Day 2, cells were treated with compounds at 0.25% DMSO. The source plate was created with compounds diluted in media at 5-fold the final assay concentration. The compounds are run in a 9-point concentration curve starting at 75 μM, with a 3-fold dilution between concentrations. […] 20 μL was transferred onto the cell plates (final volume in wells was 100 μL). Plates were harvested after 30 min and 4 hr incubation by aspirating media and adding kit-supplied 1× supplemented lysis buffer to all wells (50 μL per well). This then changed to 4 hr only when compounds became covalent. Plates were then placed on a plate shaker and incubated at 850 rpm for an additional 30 min. The antibody mixture solution was prepared by diluting aliquoted d2 and Eu Cryptate antibodies 1:20 in kit supplied detection buffer, then mixed the diluted antibodies solutions (1:1 v:v). 4 μL of this solution was then added to a 384-well detection plate (Perkin Elmer; 6008230). Samples were homogenized by pipetting up and down and then transferred (16 μL of cell lysates) from the 96-well cell culture plate to two wells of the HTRF 384-well detection plate containing the antibody solution. Plates were centrifuged (524 g for 1 min) and allowed to incubate between 4 and 24 h at room temperature. The maximum signal is reached after 4 h incubation time and remains stable over a period of 24 hours. Therefore, readings can be made between 4 and 24 h of incubation. Plates were centrifuged again (524 g for 1 min), and analyzed on the EnVision plate reader using the following settings: Excitation 320 nm, Bandwidth […]; Emission 615 nm, Bandwidth […], Gain 100%, Flashes 100, Lag 60 μs.

SMILES | % of modification [1] | IC50 ([2]; Tet-on KRAS G12D HeLa cells) | IC50 ([2]; Homo sapiens, HeLa)
C=CC(=O)N1CCc2ccc(-c3nc(-c4ccc5c(c4)CCNC5)c4ccsc4c3-c3ccc(F)cc3OCCOC)cc2C1 [compound 42] | A (percent of modification of PIK3CA protein ≥75%) | < 1000 nM | –
C=CC(=O)N1CC(n2cc(-c3nc(-c4ccc5c(c4)CCNC5)c4ccsc4c3-c3ccc(F)cc3OCCOC)cn2)C1 [Compound 44, 1-[3-[4-[7-[4-fluoro-2-(2-methoxyethoxy)phenyl]-4-(1,2,3,4-tetrahydroisoquinolin-6-yl)thieno[3,2-c]pyridin-6-yl]pyrazol-1-yl]azetidin-1-yl]prop-2-en-1-one] | A (percent of modification of PIK3CA protein ≥75%) | – | < 1000 nM
C=CC(=O)Nc1cccc(-c2nc(-c3ccc4c(c3)CCNC4)c3ccsc3c2-c2ccc(F)cc2OCCOC)c1 [Compound 12, N-[3-[7-[4-fluoro-2-(2-methoxyethoxy)phenyl]-4-(1,2,3,4-tetrahydroisoquinolin-6-yl)thieno[3,2-c]pyridin-6-yl]phenyl]prop-2-enamide] | A (percent of modification of PIK3CA protein ≥75%) | – | 1000 to 10000 nM
C=CC(=O)N1CC[C@H](n2cc(-c3nc(-c4ccc5c(c4)CCNC5)c4ccsc4c3-c3ccc(F)cc3OCCOC)cn2)C1 [compound 47] | A (percent of modification of PIK3CA protein ≥75%) | < 1000 nM | –
C=CC(=O)N1CCCC(n2cc(-c3nc(-c4ccc5c(c4)CCNC5)c4ccsc4c3-c3ccc(F)cc3OCCOC)cn2)C1 (stereo not shown) [compound 31] | A (percent of modification of PIK3CA protein ≥75%) | < 1000 nM | –
C=CC(=O)N1CCc2nc(-c3nc(-c4ccc5c(c4)CCNC5)c4ccsc4c3-c3ccc(F)cc3OCCOC)sc2C1 [Compound 58, 1-[2-[7-[4-fluoro-2-(2-methoxyethoxy)phenyl]-4-(1,2,3,4-tetrahydroisoquinolin-6-yl)thieno[3,2-c]pyridin-6-yl]-6,7-dihydro-4H-thiazolo[5,4-c]pyridin-5-yl]prop-2-en-1-one] | A (percent of modification of PIK3CA protein ≥75%) | – | –
C=CC(=O)Nc1cccc(-c2nc(-c3ccc4c(c3)CNC(=O)C4)c3ccsc3c2-c2ccc(F)cc2OCCOC)c1 [compound 51] | A (percent of modification of PIK3CA protein ≥75%) | < 1000 nM | –
